Data reported in patent publication US4472383A, “Peptide derivatives, their production and use” (Takeda Chemical Industries, Ltd., priority 1982, dated 1984).

System: Hypertensive Activity of Angiotensin I
Assay: Effect against hypertensive activity of angiotensin I in anesthetized-prepared rats (oral administration)
Type: in vivo, Male rats (Sprague-Dawley)
Conditions: rat, 13.8 μM/kg orally, angiotensin I 300 ng/kg i.v., corrected for angiotensin II response; for Percent Inhibition (%) against Hypertensive Reaction by Angiotensin I After 20 min.: 20 min after administration; for Percent Inhibition (%) against Hypertensive Reaction by Angiotensin I After 60 min.: 60 min after administration; for Percent Inhibition (%) against Hypertensive Reaction by Angiotensin I After 120 min.: 120 min after administration
Description: Effect of Present Compounds against Hypertensive Activity of Angiotensin I Male rats (Sprague-Dawley) weighing 250 g to 350 g which were fed under free access to drinking water and feeds were used as experimental animals. The rats were anesthetized with intraperitoneal administration of pentobarbital sodium (50 mg/kg) on the day before the test day and a polyethylene tube was inserted into each of the femoral artery for measurement of blood pressure and the femoral vein for injection of angiotensin I and II, and then the tubes were fixed. […] Then, 13.8 μM/kg of the compound of this invention was administered orally as an aqueous solution or an aqueous gum arabic suspension, and 20, 60 and 120 minutes after the administration, angiotensin I and II were injected repeatedly to trace hypertensive reactions. In calculating the percent inhibition to the hypertensive activity of angiotensin I, the percent inhibitory value was corrected based on the variation with time in the hypertensive reaction by angiotensin II.

SMILES | Percent Inhibition (%) against Hypertensive Reaction by Angiotensin I After 20 min. [%] | Percent Inhibition (%) against Hypertensive Reaction by Angiotensin I After 60 min. [%] | Percent Inhibition (%) against Hypertensive Reaction by Angiotensin I After 120 min. [%]
Br.CCOC(=O)[C@H](CCc1ccccc1)N[C@@H](C)C(=O)N(CC(=O)N[C@@H](Cc1ccccc1)C(=O)O)C1Cc2ccccc2C1 [Example 3, N-[1(S)-ethoxycarbonyl-3-phenylpropyl]-L-alanyl-N-(2-indanyl)glycyl-L-phenylalanine hydrobromide] | 67 | 73 | 77
CCCCOC(=O)[C@H](CCc1ccccc1)N[C@@H](C)C(=O)N(CC(=O)N[C@@H](Cc1ccccc1)C(=O)O)C1CCCC1.Cl [Example 6, N-[1(S)-butoxycarbonyl-3-phenylpropyl]-L-alanyl-N-cyclopentylglycyl-L-phenylalanine hydrochloride] | 72 | 84 | 72
